The supplement of paper PMC10307832

Legend:
Test in all cases: relative viability (nuclei count vs DMSO), 5 days (fraction); higher = more cells survive
[1] = compound: CC1(COc2ccc3c(c2)ncn3-c2ccc3cccc(N4CCC(N)CC4)c3n2)COC1 [Crenolanib] + Nc1ncn([C@H]2C[C@H](O)[C@@H](CO)O2)c(=O)n1 [Decitabine] (partner 2 µM)
How it was run: (§1)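 Five library-drug doses in √10 steps were combined with a fixed anchor-drug dose, or a single drug was given alone, by pin tool to lung cancer cell lines in 1536-well plates the day after seeding. Nuclei were stained and counted after 5 days. Relative viability is the nuclei count in treated wells over that in vehicle wells, taken as the median of duplicate plates.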

[2] = compound: CC1(COc2ccc3c(c2)ncn3-c2ccc3cccc(N4CCC(N)CC4)c3n2)COC1 [Crenolanib] + N=C(N)NC(=N)NCCc1ccccc1 [Phenformin] (partner 250 µM)
How it was run: as §1

[3] = compound: CC1(COc2ccc3c(c2)ncn3-c2ccc3cccc(N4CCC(N)CC4)c3n2)COC1 [Crenolanib] + CC(=O)Nc1cccc(-n2c(=O)n(C3CC3)c(=O)c3c(Nc4ccc(I)cc4F)n(C)c(=O)c(C)c32)c1 [Trametinib] (partner 0.02 µM)
How it was run: as §1

[4] = compound: O=C1NC(=O)[C@@H](c2cn3c4c(cccc24)CCC3)[C@@H]1c1c[nH]c2ccccc12 [Tivantinib] + CC1(C)CCC(c2ccc(Cl)cc2)=C(CN2CCN(c3ccc(C(=O)NS(=O)(=O)c4ccc(N[C@H](CCN5CCOCC5)CSc5ccccc5)c(S(=O)(=O)C(F)(F)F)c4)cc3)CC2)C1 [Navitoclax] (partner 0.5 µM)
How it was run: as §1

Cell Line | relative viability ([1]; first compound 0.01 µM) | relative viability ([1]; first compound 0.03162 µM) | relative viability ([1]; first compound 0.1 µM) | relative viability ([1]; first compound 0.3162 µM) | relative viability ([1]; first compound 1 µM) | relative viability ([2]; first compound 0.01 µM) | relative viability ([2]; first compound 0.03162 µM) | relative viability ([2]; first compound 0.1 µM) | relative viability ([2]; first compound 0.3162 µM) | relative viability ([2]; first compound 1 µM) | relative viability ([3]; first compound 0.01 µM) | relative viability ([3]; first compound 0.03162 µM) | relative viability ([3]; first compound 0.1 µM) | relative viability ([3]; first compound 0.3162 µM) | relative viability ([3]; first compound 1 µM) | relative viability ([4]; first compound 0.01 µM) | relative viability ([4]; first compound 0.03162 µM) | relative viability ([4]; first compound 0.1 µM) | relative viability ([4]; first compound 0.3162 µM)
SK-LU-1 | 0.666 | 0.703 | 0.533 | 0.66 | 0.653 | 0.61 | 0.545 | 0.39 | 0.514 | 0.517 | 0.465 | 0.517 | 0.351 | 0.491 | 0.512 | 0.864 | 0.783 | 0.941 | 0.733
NCI-H1651 | 0.678 | 0.583 | 0.592 | 0.589 | 0.638 | 0.331 | 0.36 | 0.35 | 0.336 | 0.308 | 0.864 | 0.835 | 0.783 | 0.825 | 0.847 | 1.02 | 0.928 | 1.03 | 0.938
BEN | 0.768 | 0.72 | 0.76 | 0.612 | 0.749 | 0.259 | 0.235 | 0.267 | 0.255 | 0.271 | 1.14 | 1.06 | 1.09 | 0.998 | 1.15 | 0.0556 | 0.0502 | 0.07 | 0.0718
EMC-BAC-2 | 1.07 |  | 0.957 | 1.11 | 0.963 | 0.629 | 0.497 | 0.589 | 0.51 | 0.505 | 0.905 |  | 0.893 | 0.937 | 0.799 | 1.14 | 1.12 | 1.18 | 1.05
LXF-289 | 0.402 | 0.349 | 0.408 | 0.388 | 0.413 | 0.514 | 0.538 | 0.523 | 0.524 | 0.483 | 0.665 | 0.638 | 0.689 | 0.7 | 0.718 | 0.987 | 0.949 | 0.93 | 0.933
ABC-1 | 1.42 | 1.22 | 0.978 | 1.17 | 1.15 | 0.21 | 0.265 | 0.22 | 0.261 | 0.257 |  |  |  |  |  |  |  |  | 
NCI-H2170 | 0.474 | 0.504 | 0.452 | 0.506 | 0.454 | 0.467 | 0.41 | 0.387 | 0.326 | 0.387 | 0.945 | 0.93 | 0.928 | 0.9 | 0.927 | 0.655 | 0.555 | 0.534 | 
NCI-H1355 | 0.374 | 0.335 | 0.303 | 0.407 | 0.328 | 0.506 | 0.463 | 0.445 | 0.406 | 0.381 | 0.488 | 0.381 | 0.405 | 0.547 | 0.37 | 0.879 | 0.966 | 0.949 | 0.808
